# Assay results as given in patent US20150105252A1, “SUBSTITUTED PYRAZOLES AS HERBICIDES” (E I DU PONT DE NEMOURS AND COMPANY, priority 2013, published 2015).
# Tests used:
# velvetleaf [1] = test: Test A postemergence; type: in vivo, Abutilon theophrasti
# Method in brief: (§1)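 Pre- and postemergence greenhouse test; loam+sand; cpd in non-phytotox. solvent/surfactant; post at 1–2 leaf, 2–10 cm; visual score ~10 d, 0 = none, 100 = complete control.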
# barnyardgrass [2] = test: Test A postemergence; type: in vivo, Echinochloa crus-galli; conditions: Postemergence
# Source text: (§2) Seeds of plant species selected from barnyardgrass (Echinochloa crus-galli), kochia (Kochia scoparia), common ragweed (Ambrosia elation), Italian ryegrass (Lolium multiflorum), crabgrass, large (large crabgrass, Digitaria sanguinalis), foxtail, giant (giant foxtail, Setaria faberii), morningglory (Ipomoea spp.), pigweed (redroot pigweed, Amaranthus retroflexus), velvetleaf (Abutilon theophrasti), wheat (Triticum aestivum), and corn (Zea mays) were planted into a blend of loam soil and sand and treated preemergence with a directed soil spray using test chemicals formulated in a non-phytotoxic solvent mixture which included a surfactant.
# (§3) At the same time, plants selected from these crop and weed species and also blackgrass (Alopecurus myosuroides), and galium (catchweed bedstraw, Galium aparine) were planted in pots containing the same blend of loam soil and sand and treated with postemergence applications of test chemicals formulated in the same manner. Plants ranged in height from 2 to 10 cm and were in the one- to two-leaf stage for the postemergence treatment. Treated plants and untreated controls were maintained in a greenhouse for approximately 10 days, after which time all treated plants were compared to untreated controls and visually evaluated for injury. Plant response ratings, summarized in Table A, are based on a 0 to 100 scale where 0 is no effect and 100 is complete control. A dash (-) response means no test result.
# foxtail, giant [3] = test: Test A preemergence; type: in vivo, Setaria faberii; conditions: 0 to 100 scale
# Method in brief: as §1
# morningglory [4] = test: Test A preemergence; type: in vivo, Ipomoea spp.; conditions: 0 to 100 scale
# Method in brief: as §1
# foxtail, giant [5] = test: Test A postemergence; type: in vivo, Setaria faberii
# Source text: as §2, §3
# pigweed [6] = test: Test A postemergence; type: in vivo, Amaranthus retroflexus
# Method in brief: as §1
# barnyardgrass [7] = test: Test A preemergence; type: in vivo, Echinochloa crus-galli; conditions: 0 to 100 scale
# Source text: as §2, §3
# wheat [8] = test: Test A postemergence; type: in vivo, Triticum aestivum
# Source text: as §2, §3
# crabgrass, large [9] = test: Test A postemergence; type: in vivo, Digitaria sanguinalis
# Source text: as §2, §3
# wheat [10] = test: Test A preemergence; type: in vivo, Triticum aestivum; conditions: 0 to 100 scale
# Method in brief: as §1
# morningglory [11] = test: Test A postemergence; type: in vivo, Ipomoea spp.
# Method in brief: as §1
# velvetleaf [12] = test: Test A preemergence; type: in vivo, Abutilon theophrasti; conditions: 0 to 100 scale
# Source text: as §2, §3
# pigweed [13] = test: Test A preemergence; type: in vivo, Amaranthus retroflexus; conditions: 0 to 100 scale
# Source text: as §2, §3
# crabgrass, large [14] = test: Test A preemergence; type: in vivo, Digitaria sanguinalis; conditions: 0 to 100 scale
# Method in brief: as §1
# corn [15] = test: Test A postemergence; type: in vivo, Zea mays
# Source text: as §2, §3
# corn [16] = test: Test A preemergence; type: in vivo, Zea mays; conditions: 0 to 100 scale
# Source text: as §2, §3
# [17] = Postemergence, 500 g ai/ha, visual rating after approx. 10 days, 0 to 100 scale (0 no effect, 100 complete control)
# [18] = postemergence, 125 g ai/ha, about 10 days, visual rating on 0 to 100 scale (0 no effect, 100 complete control)
# [19] = 125 g ai/ha, 0 to 100 scale, 0 no effect, 100 complete control
# [20] = 500 g ai/ha, visual rating after approx. 10 days, 0 to 100 scale (0 no effect, 100 complete control)
# [21] = Preemergence, 500 g ai/ha, 0 no effect, 100 complete control
# [22] = preemergence, 125 g ai/ha, visual injury, approx. 10 days
# [23] = Postemergence, 1000 g ai/ha, visual rating after approx. 10 days, 0 to 100 scale (0 no effect, 100 complete control)
# [24] = 1000 g ai/ha, visual rating after approx. 10 days, 0 to 100 scale (0 no effect, 100 complete control)
# [25] = Preemergence, 1000 g ai/ha, 0 no effect, 100 complete control
smiles,measurement,setting,value
Cc1cc(C(=O)NCC(F)(F)F)nn1Cc1ccc(F)c(C(F)(F)F)c1 [Compound 12],Velvetleaf plant response rating,velvetleaf [1]; [17],50
same,Velvetleaf plant response rating,velvetleaf [1]; [18],40
same,Barnyardgrass plant response rating,barnyardgrass [2]; [19],10
same,Barnyardgrass plant response rating,barnyardgrass [2]; [20],20
same,"Foxtail, Giant plant response rating","foxtail, giant [3]; [21]",60
same,"Foxtail, Giant plant response rating","foxtail, giant [3]; [22]",10
same,Morningglory plant response rating,morningglory [4]; [21],10
same,Morningglory plant response rating,morningglory [4]; [22],0
same,"Foxtail, Giant plant response rating","foxtail, giant [5]; [17]",30
same,"Foxtail, Giant plant response rating","foxtail, giant [5]; [18]",20
same,Pigweed plant response rating,pigweed [6]; [17],100
same,Pigweed plant response rating,pigweed [6]; [18],80
same,Barnyardgrass plant response rating,barnyardgrass [7]; [21],30
same,Barnyardgrass plant response rating,barnyardgrass [7]; [22],0
same,Wheat plant response rating,wheat [8]; [17],0
same,Wheat plant response rating,wheat [8]; [18],0
same,"Crabgrass, Large plant response rating","crabgrass, large [9]; [17]",50
same,"Crabgrass, Large plant response rating","crabgrass, large [9]; [18]",30
same,Wheat plant response rating,wheat [10]; [22],0
same,Morningglory plant response rating,morningglory [11]; [17],90
same,Morningglory plant response rating,morningglory [11]; [18],50
same,Velvetleaf plant response rating,velvetleaf [12]; [21],0
same,Velvetleaf plant response rating,velvetleaf [12]; [22],0
same,Pigweed plant response rating,pigweed [13]; [21],100
same,Pigweed plant response rating,pigweed [13]; [22],70
same,"Crabgrass, Large plant response rating","crabgrass, large [14]; [21]",60
same,"Crabgrass, Large plant response rating","crabgrass, large [14]; [22]",40
same,Corn plant response rating,corn [15]; [17],20
same,Corn plant response rating,corn [15]; [18],10
same,Corn plant response rating,corn [16]; [21],0
same,Corn plant response rating,corn [16]; [22],0
Cc1cc(C(=O)NC2CC2)nn1Cc1cc(F)cc(C(F)(F)F)c1 [Compound 14],Velvetleaf plant response rating,velvetleaf [1]; [17],30
same,Velvetleaf plant response rating,velvetleaf [1]; [18],20
same,Barnyardgrass plant response rating,barnyardgrass [2]; [19],0
same,Barnyardgrass plant response rating,barnyardgrass [2]; [20],10
same,"Foxtail, Giant plant response rating","foxtail, giant [3]; [21]",90
same,"Foxtail, Giant plant response rating","foxtail, giant [3]; [22]",10
same,Morningglory plant response rating,morningglory [4]; [21],20
same,Morningglory plant response rating,morningglory [4]; [22],0
same,"Foxtail, Giant plant response rating","foxtail, giant [5]; [17]",20
same,"Foxtail, Giant plant response rating","foxtail, giant [5]; [18]",0
same,Pigweed plant response rating,pigweed [6]; [17],70
same,Pigweed plant response rating,pigweed [6]; [18],50
same,Barnyardgrass plant response rating,barnyardgrass [7]; [21],10
same,Barnyardgrass plant response rating,barnyardgrass [7]; [22],0
same,Wheat plant response rating,wheat [8]; [17],0
same,Wheat plant response rating,wheat [8]; [18],0
same,"Crabgrass, Large plant response rating","crabgrass, large [9]; [17]",40
same,"Crabgrass, Large plant response rating","crabgrass, large [9]; [18]",20
same,Wheat plant response rating,wheat [10]; [22],0
same,Morningglory plant response rating,morningglory [11]; [17],80
same,Morningglory plant response rating,morningglory [11]; [18],50
same,Velvetleaf plant response rating,velvetleaf [12]; [21],0
same,Velvetleaf plant response rating,velvetleaf [12]; [22],0
same,Pigweed plant response rating,pigweed [13]; [21],100
same,Pigweed plant response rating,pigweed [13]; [22],100
same,"Crabgrass, Large plant response rating","crabgrass, large [14]; [21]",90
same,"Crabgrass, Large plant response rating","crabgrass, large [14]; [22]",10
same,Corn plant response rating,corn [15]; [17],10
same,Corn plant response rating,corn [15]; [18],0
same,Corn plant response rating,corn [16]; [21],0
same,Corn plant response rating,corn [16]; [22],0
CCNC(=O)c1cc(CC)n(Cc2cccc(C(F)(F)F)c2)n1 [Compound 17],Velvetleaf plant response rating,velvetleaf [1]; [23],100
same,Barnyardgrass plant response rating,barnyardgrass [2]; [24],40
same,"Foxtail, Giant plant response rating","foxtail, giant [3]; [25]",100
same,Morningglory plant response rating,morningglory [4]; [25],80
same,"Foxtail, Giant plant response rating","foxtail, giant [5]; [23]",90
same,Pigweed plant response rating,pigweed [6]; [23],90
same,Barnyardgrass plant response rating,barnyardgrass [7]; [25],80
same,Wheat plant response rating,wheat [8]; [23],30
same,"Crabgrass, Large plant response rating","crabgrass, large [9]; [23]",90
same,Wheat plant response rating,wheat [10]; [25],20
same,Morningglory plant response rating,morningglory [11]; [23],100
same,Velvetleaf plant response rating,velvetleaf [12]; [25],100
same,Pigweed plant response rating,pigweed [13]; [25],100
same,"Crabgrass, Large plant response rating","crabgrass, large [14]; [25]",100
same,Corn plant response rating,corn [15]; [23],40
same,Corn plant response rating,corn [16]; [25],10
CCc1cc(C(=O)NCC(F)(F)F)nn1Cc1cccc(C(F)(F)F)c1 [Compound 18],Velvetleaf plant response rating,velvetleaf [1]; [23],100
same,Barnyardgrass plant response rating,barnyardgrass [2]; [24],50
same,"Foxtail, Giant plant response rating","foxtail, giant [3]; [25]",100
same,Morningglory plant response rating,morningglory [4]; [25],70
same,"Foxtail, Giant plant response rating","foxtail, giant [5]; [23]",90
same,Pigweed plant response rating,pigweed [6]; [23],90
same,Barnyardgrass plant response rating,barnyardgrass [7]; [25],80
same,Wheat plant response rating,wheat [8]; [23],40
same,"Crabgrass, Large plant response rating","crabgrass, large [9]; [23]",90
same,Wheat plant response rating,wheat [10]; [25],40
same,Morningglory plant response rating,morningglory [11]; [23],100
same,Velvetleaf plant response rating,velvetleaf [12]; [25],100
same,Pigweed plant response rating,pigweed [13]; [25],90
same,"Crabgrass, Large plant response rating","crabgrass, large [14]; [25]",100
same,Corn plant response rating,corn [15]; [23],70
same,Corn plant response rating,corn [16]; [25],30
CCNC(=O)c1cc(CC)n(Cc2cccc(OC(F)(F)F)c2)n1 [Compound 19],Velvetleaf plant response rating,velvetleaf [1]; [23],100
same,Barnyardgrass plant response rating,barnyardgrass [2]; [24],60
same,"Foxtail, Giant plant response rating","foxtail, giant [3]; [25]",100
same,Morningglory plant response rating,morningglory [4]; [25],90
same,"Foxtail, Giant plant response rating","foxtail, giant [5]; [23]",70
same,Pigweed plant response rating,pigweed [6]; [23],100
same,Barnyardgrass plant response rating,barnyardgrass [7]; [25],90
same,Wheat plant response rating,wheat [8]; [23],20
same,"Crabgrass, Large plant response rating","crabgrass, large [9]; [23]",80
same,Wheat plant response rating,wheat [10]; [25],10
same,Morningglory plant response rating,morningglory [11]; [23],90
same,Velvetleaf plant response rating,velvetleaf [12]; [25],80
same,Pigweed plant response rating,pigweed [13]; [25],100
same,"Crabgrass, Large plant response rating","crabgrass, large [14]; [25]",100
same,Corn plant response rating,corn [15]; [23],20
same,Corn plant response rating,corn [16]; [25],30
CSc1cc(C(=O)NC2CC2)nn1Cc1cccc(C(F)(F)F)c1 [Compound 22],Velvetleaf plant response rating,velvetleaf [1]; [23],80
same,Barnyardgrass plant response rating,barnyardgrass [2]; [24],30
same,"Foxtail, Giant plant response rating","foxtail, giant [3]; [25]",20
same,Morningglory plant response rating,morningglory [4]; [25],0
same,"Foxtail, Giant plant response rating","foxtail, giant [5]; [23]",40
same,Pigweed plant response rating,pigweed [6]; [23],60
same,Barnyardgrass plant response rating,barnyardgrass [7]; [25],0
same,Wheat plant response rating,wheat [8]; [23],20
same,"Crabgrass, Large plant response rating","crabgrass, large [9]; [23]",50
same,Wheat plant response rating,wheat [10]; [25],0
same,Morningglory plant response rating,morningglory [11]; [23],100
same,Velvetleaf plant response rating,velvetleaf [12]; [25],0
same,Pigweed plant response rating,pigweed [13]; [25],0
same,"Crabgrass, Large plant response rating","crabgrass, large [14]; [25]",10
same,Corn plant response rating,corn [15]; [23],10
same,Corn plant response rating,corn [16]; [25],0
